Values of other authors as cited in paper PMC8373983, “Effect of salinity on the zinc(II) binding efficiency of siderophore functional groups and implications for salinity tolerance mechanisms in barley” (Scientific Reports, 2021).
Read-outs that look alike come from different tables or passages of the source.

Legend:
barley plants = conditions: cited from earlier work
[1] = test system: wild and cultivated barley plants; conditions: 0.20 M NaCl; hydroponic, no initial micronutrient deficiencies; cited from earlier work

Structure (SMILES): [Cl-].[Na+] [NaCl]
- Zinc(II) content ratio (barley plants; Leaves, Iranis, 0.08 M NaCl, pH 7.5, soil, 350 μmol/mol CO2): 0.88
- Zinc(II) content ratio (barley plants; Leaves, Iranis, 0.08 M NaCl, pH 7.5, soil, 700 μmol/mol CO2): 1.25
- Zinc(II) content ratio (barley plants; Leaves, Iranis, 0.16 M NaCl, pH 7.5, soil, 350 μmol/mol CO2): 0.94
- Zinc(II) content ratio (barley plants; Leaves, Iranis, 0.16 M NaCl, pH 7.5, soil, 700 μmol/mol CO2): 1.19
- Zinc(II) content ratio (barley plants; Leaves, Iranis, 0.24 M NaCl, pH 7.5, soil, 350 μmol/mol CO2): 1.35
- Zinc(II) content ratio (barley plants; Leaves, Iranis, 0.24 M NaCl, pH 7.5, soil, 700 μmol/mol CO2): 1.31
- Zinc(II) content ratio (barley plants; Roots, CM72, 0.15 M NaCl, pH 6.5, soil, Cr 0 μM): 0.68
- Zinc(II) content ratio (barley plants; Roots, CM72, 0.15 M NaCl, pH 6.5, soil, Cr 10 μM): 0.66
- Zinc(II) content ratio (barley plants; Roots, CM72, 0.15 M NaCl, pH 6.5, soil, Cr 50 μM): 0.82
- Zinc(II) content ratio (barley plants; Roots, Gairdner, 0.15 M NaCl, pH 6.5, soil, Cr 0 μM): 0.51
- Zinc(II) content ratio (barley plants; Roots, Gairdner, 0.15 M NaCl, pH 6.5, soil, Cr 10 μM): 0.56
- Zinc(II) content ratio (barley plants; Roots, Gairdner, 0.15 M NaCl, pH 6.5, soil, Cr 50 μM): 0.59
- Zinc(II) content ratio (barley plants; Roots, Iranis, 0.08 M NaCl, pH 7.5, soil, 350 μmol/mol CO2): 1.08
- Zinc(II) content ratio (barley plants; Roots, Iranis, 0.08 M NaCl, pH 7.5, soil, 700 μmol/mol CO2): 1.11
- Zinc(II) content ratio (barley plants; Roots, Iranis, 0.16 M NaCl, pH 7.5, soil, 350 μmol/mol CO2): 0.90
- Zinc(II) content ratio (barley plants; Roots, Iranis, 0.16 M NaCl, pH 7.5, soil, 700 μmol/mol CO2): 1.00
- Zinc(II) content ratio (barley plants; Roots, Iranis, 0.24 M NaCl, pH 7.5, soil, 350 μmol/mol CO2): 0.97
- Zinc(II) content ratio (barley plants; Roots, Iranis, 0.24 M NaCl, pH 7.5, soil, 700 μmol/mol CO2): 0.96
- Zinc(II) content ratio (barley plants; Shoots, CM72, 0.15 M NaCl, pH 6.5, soil, Cr 0 μM): 0.79
- Zinc(II) content ratio (barley plants; Shoots, CM72, 0.15 M NaCl, pH 6.5, soil, Cr 10 μM): 0.82
- Zinc(II) content ratio (barley plants; Shoots, CM72, 0.15 M NaCl, pH 6.5, soil, Cr 50 μM): 0.98
- Zinc(II) content ratio (barley plants; Shoots, Gairdner, 0.15 M NaCl, pH 6.5, soil, Cr 0 μM): 0.67
- Zinc(II) content ratio (barley plants; Shoots, Gairdner, 0.15 M NaCl, pH 6.5, soil, Cr 10 μM): 0.72
- Zinc(II) content ratio (barley plants; Shoots, Gairdner, 0.15 M NaCl, pH 6.5, soil, Cr 50 μM): 0.97
- Zinc(II) content ratio (barley plants; Stems, Iranis, 0.08 M NaCl, pH 7.5, soil, 350 μmol/mol CO2): 1.25
- Zinc(II) content ratio (barley plants; Stems, Iranis, 0.08 M NaCl, pH 7.5, soil, 700 μmol/mol CO2): 0.95
- Zinc(II) content ratio (barley plants; Stems, Iranis, 0.16 M NaCl, pH 7.5, soil, 350 μmol/mol CO2): 0.81
- Zinc(II) content ratio (barley plants; Stems, Iranis, 0.16 M NaCl, pH 7.5, soil, 700 μmol/mol CO2): 0.95
- Zinc(II) content ratio (barley plants; Stems, Iranis, 0.24 M NaCl, pH 7.5, soil, 350 μmol/mol CO2): 1.19
- Zinc(II) content ratio (barley plants; Stems, Iranis, 0.24 M NaCl, pH 7.5, soil, 700 μmol/mol CO2): 1.16
- Zinc(II) content ratio (barley plants; Whole-plant, Bajwar-200, 0.04 M NaCl, pH 5.6, hydroponic): 0.99
- Zinc(II) content ratio (barley plants; Whole-plant, Bajwar-200, 0.08 M NaCl, pH 5.6, hydroponic): 1.03
- Zinc(II) content ratio (barley plants; Whole-plant, Bajwar-200, 0.12 M NaCl, pH 5.6, hydroponic): 1.18
- Zinc(II) content ratio (barley plants; Whole-plant, TARM-92, 0.09 M NaCl, pH 8.1, soil, seeds soaked in 0.5 mM Kinetin): 1.12
- Zinc(II) content ratio (barley plants; Whole-plant, TARM-92, 0.09 M NaCl, pH 8.1, soil, seeds soaked in 2.0 mM GA3): 2.00
- Zinc(II) content ratio (barley plants; Whole-plant, TARM-92, 0.09 M NaCl, pH 8.1, soil, seeds soaked in H2O): 1.07
- Zinc(II) content ratio (barley plants; Whole-plant, TARM-92, 0.16 M NaCl, pH 8.1, soil, seeds soaked in 0.5 mM Kinetin): 1.13
- Zinc(II) content ratio (barley plants; Whole-plant, TARM-92, 0.16 M NaCl, pH 8.1, soil, seeds soaked in 2.0 mM GA3): 1.06
- Zinc(II) content ratio (barley plants; Whole-plant, TARM-92, 0.16 M NaCl, pH 8.1, soil, seeds soaked in H2O): 1.09
- Zinc(II) content ratio (barley plants; Whole-plant, TARM-92, 0.24 M NaCl, pH 8.1, soil, seeds soaked in 0.5 mM Kinetin): 1.05
- Zinc(II) content ratio (barley plants; Whole-plant, TARM-92, 0.24 M NaCl, pH 8.1, soil, seeds soaked in 2.0 mM GA3): 0.88
- Zinc(II) content ratio (barley plants; Whole-plant, TARM-92, 0.24 M NaCl, pH 8.1, soil, seeds soaked in H2O): 1.17
- increase in phytosiderophore release [1]: 2.5–3 times
